Source: patent US7973024B2, “24-sulfoximine vitamin D3 compounds” (Cyctochroma Inc., priority 2002, dated 2011)

Key:
Assay type in all cases: cell-based
CYP24 [1] = biological target: T1, CYP24 (Homo sapiens, UniProt Q07973); test: CYP24 enzyme assay (stable cell line V79-CYP24 cells); conditions: [3H-1β]-1α,25(OH)2D3 20 nM, 2 hours
T1 construct: expressed in transfected cells
T1 sequence (Q07973 36-514): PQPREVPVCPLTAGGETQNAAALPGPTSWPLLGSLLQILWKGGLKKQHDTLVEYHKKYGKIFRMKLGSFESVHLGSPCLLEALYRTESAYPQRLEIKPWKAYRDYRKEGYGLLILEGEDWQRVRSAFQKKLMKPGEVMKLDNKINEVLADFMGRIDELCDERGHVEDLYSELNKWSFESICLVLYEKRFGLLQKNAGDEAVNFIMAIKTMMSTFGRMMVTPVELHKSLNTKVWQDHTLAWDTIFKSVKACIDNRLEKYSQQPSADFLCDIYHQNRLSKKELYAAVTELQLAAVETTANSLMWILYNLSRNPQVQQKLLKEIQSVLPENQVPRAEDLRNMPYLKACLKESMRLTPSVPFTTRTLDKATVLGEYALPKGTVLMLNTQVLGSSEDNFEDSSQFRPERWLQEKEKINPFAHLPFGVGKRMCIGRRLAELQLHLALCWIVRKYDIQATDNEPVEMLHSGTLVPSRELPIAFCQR
Experimental: 1. Preparation of Cell Suspension • On the day of the assay, washed the monolayer of V79-CYP24 cells once with 1×PBS buffer and then trypsinize for 5 min at room temperature (approx. 22° C.). Added 1×PBS. Collected cells into tube, centrifuged cells (500×g, 5 min) and resuspended in DMEM+1% BSA media.
2. Cell Plating • Added 150 μl of cell suspension to appropriately labelled wells of a 48-well plate. Incubated plate for 30 minutes at 37° C. in a humidified atmosphere containing 5% CO2 for adherence of cells to wells.
3. Compound Addition • Added 25 μl of inhibitor (10^−6 to 10^−9 M) and then after 10 min added 25 μl of substrate [^3H-1β]-1α,25(OH)2D3 (20 nM) for 2 hours at 37° C. in a humidified atmosphere containing 5% CO2. Both inhibitor and substrate were prepared in DMEM with 1% BSA media in the absence and presence of 100 μM DPPD.
4. Lipid Extraction and Counting • Added 500 μL of methanol to stop the reaction. Transferred to tube. Added 250 μl of dichloromethane and vortexed. Added 250 μl of dichloromethane and 250 μl of saturated KCL and vortexed. Centrifuged at 4000 rpm for 5 min. Triplicate 100 μl aliquots of aqueous fraction were mixed with 600 μl of scintillation fluid and the radioactivity was measured using a scintillation counter. All values were normalized for background. (iii) Results.

CYP24 [2] = biological target: T1, CYP24; test: CYP24 enzyme assay (induced HPK1A-ras cells); conditions: HPK1A-ras cells induced with 1,25(OH)2D3; [3H]-1,25(OH)2D3 substrate, 2 hour
Experimental: 1.25(OH)2D3 10^−5 M (Sigma, St. Louis, Mo.);
Preparation of 10^−5 M working solution is as follows:
Dissolve 1 mg of 1,25(OH)2D3 into 480 μl of isopropanol to make 5×10^−3 M stock solution. Store at −70° C. until needed. Aliquot 1 μl of 1.25(OH)2D3 5×10^−3 M stock solution to 499 μl of isopropanol to make 1.25(OH)2D3 10^−5 working solution. Store at −20° C. until needed. […] Induction of HPKIA-ras cells (The day before assay) • When the HPK1A-ras cells were 80-90% confluent, added 1 μL 10^−5 M 1.25(OH)2D3 to 1 mL medium in the plate (final concentration is 10^−8 M). • 2. Preparation of cell suspension • After 18 to 20 hours induction, removed the medium and washed the cell twice with PBS. Then tripsinized the cells from plate, centrifuged (2,000 rpm, 5 min) and suspended cells pellet in DMEM medium+1% BSA. • Counted the cells and adjusted cells density to 250,000/150 μL, added 150 μL cell suspension to each well in 48-well plate (including 3 wells as a no cell control, and 3 well cells without drug or inhibitor as controls). • 3. […] Kept the plate in 37° C. for 10 min. • 4. Preparation of substrate • For each ml required, added 972 μl of DMEM+1% BSA medium, 20 μl of 3H-1,25(OH)2D3, and 8 μl of 100 nM DPPD to a tube and vortexed. • 5. Incubation • Added 25 μL substrate to each well, incubated the plate at 37° C. for 2 hour. • Added 25 μL substrate to counting plate (2 well) as a total count. • 6. Lipid Extraction and Counting • Added 500 μL methanol to each well to stop the reaction, transferred them to tube. • Added 250 μL dichloromethane and vortex. • Added 250 μL dichloromethane and […] saturated KCI, and vortex. • Centrifuged at 4000 rpm for 5 min. • Transferred 100 μL of aqueous phase (upper phase) to counting plastic counting plate. Added 600 μL of scintillation fluid to each well. Counted the plate in scintillation counter. • 7. Calculation Enzyme Activity • CPM of cell control after subtraction of CPM of non-cell control (NCC) was as 100% enzyme activity.
• Dilution of test compounds • Stock 10^−3 M

SCC-25 cells = test: [3H]-thymidine proliferation assay with SCC-25 cells; conditions: together with calcitriol, three days, [3H]-thymidine 6 h
Experimental: 1. Preparation of Cell Suspension • When SCC-25 cells were 70-80% confluent, aspirated media. Washed the cells with 1×PBS. Trypsinized with trypsin-EDTA from the plate, collected cells from the tissue culture flask, centrifuged (500×g, 5 min) and resuspended in media.
2. Cell Plating. • Counted the cells and adjusted the cell density to 10,000/ml. Added 200 μl per well in a 96 well plate. Incubated plate for 24 h at 37° C. in a humidified atmosphere plus 5% CO2. Aspirated used media and replaced with 150 μl per well with media.
3. Compound Addition. • Added 25 μl of 1α,25(OH)2D3 (final concentration 10^−6M, 10^−7 M, 10^−8 M, M, 10^−10 M, 10^−11 M) into each designated well. Added 25 μl of substrate (final concentration 10^−7 M, 5×10^−8 M, 10^−8 M or 10^−9 M) into each designated well. Incubated plates for 3 days at 37° C. in a humidified atmosphere plus 5% CO2.
4. ^3H-Thymidine Incorporation. • Added ^3H-thymidine at 0.02 μCi per well and incubated at 37° C. in a humidified atmosphere plus 5% CO2 for 6 h.
5. Plate Harvesting. • Aspirated all media and washed cells with 1×PBS. Trypsinized cells for 30 min at 37° C. in a humidified atmosphere plus 5% CO2. Harvested cells onto a 96 well filter plate (Millipore) using a Tomtec Cell Harvestor, according to manufacturers instructions.
6. Scintillation Counting. • Added 25 μl of scintillation fluid per well. Counted the plate using a scintillation counter.

With `C=C1/C(=C\C=C2/CCC[C@]3(C)[C@@H]([C@H](C)CCS(=N)(=O)c4ccccc4)CC[C@@H]23)C[C@@H](O)C[C@@H]1O` (single isomer, unassigned) [I(c)] the IC50 (CYP24 [1]) was 20 nM, the IC50 (CYP24 [2]) was 33 nM and the “inhibition of proliferation of SCC-25 cells” value (SCC-25 cells) was “act to inhibit the proliferation”.
